Results taken from US20260297106A1, “SPIROCYCLIC SUBSTITUTED OXOISOINDOLINYL PIPERIDINE-2,6-DIONE COMPOUND” (Bristol-Myers Squibb Company, priority 2023, published 2026).
Read-outs that look alike come from different tables or passages of the source.

Experiments:
[1] = biological target: T1, IKZF4 Eos (Homo sapiens, UniProt Q96SW2+Q9H2S9); test: Human Regulatory T Cell Reprogramming Assay (IKZF4 Eos); format: cell-based; conditions: CD4+ CD127low CD25+ Treg cells, 12-13 days; for DC50: concentration reducing protein level by 50% vs DMSO; for Dmax: Regulatory T cell, human, read-out: Maximum Observed Degradation IKZF4 Eos
T1 construct: T cells were isolated from fresh healthy leukopaks; endogenous in cells; host or cells: FACS-sorted primary human CD4+ CD127low CD25+ Treg cells from healthy leukopaks
Experimental: Human CD4^+ T cells were isolated from fresh healthy leukopaks (Stemcell Technologies) using the RosetteSep Human CD4^+ T cell enrichment cocktail (Stemcell Technologies) and Ficoll density gradient centrifugation. Leukopaks were diluted with an equal volume of phosphate-buffered saline (PBS [Gibco]) supplemented with 2% fetal bovine serum (FBS, VWR Lifescience) and incubated with RosetteSep Human CD4^+ T cell enrichment cocktail for 20 minutes before layering on Ficoll-Paque Plus solution (GE Health Care). The cell-rich interface layer was harvested and washed twice with PBS supplemented with 2% FBS. Regulatory T cells were then isolated manually using the EasySep Human CD4 CD1271WCD25^+ Regulatory T cell isolation kit (Stemcell Technologies) according to the manufacturer's instructions. Cells were rested overnight in Roswell Park Memorial Institute (RPMI) 1640 media (Gibco) supplemented with 10% FBS, Pen/Strep (Gibco), MEM-NEAA (Gibco), and sodium pyruvate (Gibco) in a humidified incubator (37° C., 5% CO2). Cells were then stained for CD4 (clone: RPA-T4, Biolegend), CD25 (clone: 2A3, BD Biosciences), and CD127 (clone: hIL-7R-M21, BD Biosciences). CD4^+ CD127^lowCD25^+ cells were sorted on a BD FACS Aria Fusion sorter to a purity of 95% or greater. Sorted cells were immediately used or cryopreserved for downstream assays.
Fresh or cryopreserved FACS-sorted CD4^+ CD127^lowCD25^+ Treg cells were cultured at 25,000-50,000 cells/well of 96-well round bottom plates in RPMI 1640 media (Gibco) supplemented with 10% FBS, Pen/Strep (Gibco), MEM-NEAA (Gibco), and sodium pyruvate (Gibco). Cells were stimulated with Treg Xpander beads (Thermo Fisher) at cells-to-beads ratio of 1:4 in the presence of 500 U/mL recombinant human IL-2 (Proleukin). Compounds were added at titrated doses and cells were incubated at 37° C., 5% CO2 for 12-13 days. Recombinant human IL-2 and compound were replenished every 2-3 days during the entire culture duration. On day 12 or 13, cells were restimulated with phorbol 12-myristate 13-acetate (PMA) and ionomycin in the presence of the protein transport inhibitors brefeldin A and monensin (eBioscience Cell Stimulation Cocktail plus protein transport inhibitors, 500×, Catalog number 00-4975-93) before proceeding with flow cytometry staining and analysis.
For flow cytometry staining, cells were washed twice with flow cytometry staining buffer (Thermo Fisher) and incubated in Human Tru-stain Fc block (Biolegend) for 10 minutes before adding eFluor780 viability dye (Thermo Fisher) and surface marker antibody cocktail for 30 minutes at 4° C. Cells were then fixed and permeabilized by incubation with FoxP3 transcription factor staining buffer (Thermo Fisher) for 30 minutes at 4° C. as per the kit manufacturer's instructions. Cells were washed twice with the Perm/Wash buffer supplied in the kit as per the manufacturer's instructions and incubated overnight at 4° C. with an intracellular antibody cocktail comprised of antibodies specific for the transcription factors shown in Table C. Cells were washed twice with Perm/Wash buffer and resuspended in flow cytometry staining buffer (Thermo Fisher) prior to acquisition. Sample acquisition and analysis was performed using a BD LSRFortessa (BD Biosciences) flow cytometer. Single stain controls for each fluorochrome were prepared using UltraComp eBead Compensation Beads (Thermo Fisher). Data were analyzed using FlowJo version 10 and GraphPad Prism Software.
(§1) Table C-1 lists the maximum observed degradation of the IKZF2 protein and IKZF4 protein as measured in the Human Regulatory T Cell Reprogramming assay. The results in Table C-1 were rounded to two digits. In the Human Regulatory T Cell Reprogramming assay, a value of 100% indicated no detectable protein remaining or complete degradation of the protein; and a value of 0% indicated no detectable degradation of the protein by the test compound.

[2] = biological target: IKZF3 Aiolos (Homo sapiens, UniProt Q96SW2+Q9UKT9); test: Human CD8+ T Cell Reprogramming Assay (IKZF3 Aiolos); format: cell-based; set-up: Cryopreserved healthy donor human peripheral blood mononuclear cells; endogenous in cells; host or cells: primary human PBMC, CD8+ T cells read by flow cytometry
Experimental: Cryopreserved healthy donor human peripheral blood mononuclear cells (PBMC) from healthy donors were thawed and seeded at 500,000 cells/well of 96-well round bottom plates in RPMI 1640 media (Gibco) supplemented with 10% FBS, Pen/Strep (Gibco), MEM-NEAA (Gibco), and sodium pyruvate (Gibco). Cells were treated with titrated doses of compound for 24 hours at 37° C., 5% CO2 before analyzing by flow cytometry.
For flow cytometry staining, cells were washed twice with flow cytometry staining buffer (Thermo Fisher) and incubated in Human Tru-stain Fc block (Biolegend) for 10 minutes before adding eFluor780 viability dye (Thermo Fisher) and surface marker antibody cocktail containing LD-eFluor780, CD3-BUV-395, CD4-BUV805, CD8-FITC, and CD25-BV605 for 30 minutes at 4° C. Cells were then fixed and permeabilized by incubation with permeabilization buffer (eBioscience FoxP3 buffer set 00-5523-00) for 30 minutes at 4° C. as per the kit manufacturer's instructions. Cells were washed twice with the Perm/Wash buffer supplied in the kit as per the manufacturer's instructions and incubated overnight at 4° C. with an intracellular antibody cocktail comprised of antibodies specific for the transcription factors (i.e., Foxp3-BV421, HELIOS-PE-Cy7, EOS-PE, IKAROS-PECF594, AIOLOS-AF647). Cells were washed twice with Perm/Wash buffer and resuspended in flow cytometry staining buffer (Thermo Fisher) prior to acquisition. Sample acquisition and analysis was performed using a BD LSRFortessa (BD Biosciences) flow cytometer. Single-stain controls for each fluorochrome were prepared using UltraComp eBead Compensation Beads (Thermo Fisher). Data were analyzed using FlowJo version 10 and GraphPad Prism Software.
as §1, with “D-1” for “C-1”, “IKZF1” for “IKZF2”, “IKZF3” for “IKZF4”, “CD8^+” for “Regulatory”

[3] = human PBMC, CD8+ T cells, 24 hours, read-out: Maximum Observed Degradation IKZF3 Aiolos

IKZF3 Aiolos, sequence (Q9UKT9 whole entry): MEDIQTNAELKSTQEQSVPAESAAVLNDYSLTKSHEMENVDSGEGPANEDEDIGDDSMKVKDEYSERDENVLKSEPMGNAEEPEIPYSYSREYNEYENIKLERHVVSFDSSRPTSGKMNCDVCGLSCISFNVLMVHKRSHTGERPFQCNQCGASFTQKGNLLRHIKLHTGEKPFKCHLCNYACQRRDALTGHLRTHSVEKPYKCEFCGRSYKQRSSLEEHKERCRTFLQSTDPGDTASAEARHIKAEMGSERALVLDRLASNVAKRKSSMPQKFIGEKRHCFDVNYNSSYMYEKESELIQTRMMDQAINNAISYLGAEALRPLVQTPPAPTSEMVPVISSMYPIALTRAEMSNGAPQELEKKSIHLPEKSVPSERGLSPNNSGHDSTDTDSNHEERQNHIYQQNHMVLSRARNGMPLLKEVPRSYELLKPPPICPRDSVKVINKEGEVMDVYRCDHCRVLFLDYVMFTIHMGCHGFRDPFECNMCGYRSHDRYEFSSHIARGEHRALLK
IKZF3 Aiolos, sequence (Q96SW2 whole entry): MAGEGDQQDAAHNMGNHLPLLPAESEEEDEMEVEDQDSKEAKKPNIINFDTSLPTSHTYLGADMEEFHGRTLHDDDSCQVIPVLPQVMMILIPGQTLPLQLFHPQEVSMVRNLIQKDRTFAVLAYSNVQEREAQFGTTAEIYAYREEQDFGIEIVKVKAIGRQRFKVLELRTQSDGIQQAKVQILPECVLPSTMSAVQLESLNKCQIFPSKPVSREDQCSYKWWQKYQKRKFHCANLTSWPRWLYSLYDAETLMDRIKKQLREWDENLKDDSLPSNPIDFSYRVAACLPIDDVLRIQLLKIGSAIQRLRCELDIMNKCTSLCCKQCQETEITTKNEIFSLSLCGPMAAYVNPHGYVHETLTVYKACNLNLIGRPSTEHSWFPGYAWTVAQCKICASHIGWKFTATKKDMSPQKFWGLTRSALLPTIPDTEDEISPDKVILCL
IKZF3 Aiolos, sequence (Q16531 whole entry partner): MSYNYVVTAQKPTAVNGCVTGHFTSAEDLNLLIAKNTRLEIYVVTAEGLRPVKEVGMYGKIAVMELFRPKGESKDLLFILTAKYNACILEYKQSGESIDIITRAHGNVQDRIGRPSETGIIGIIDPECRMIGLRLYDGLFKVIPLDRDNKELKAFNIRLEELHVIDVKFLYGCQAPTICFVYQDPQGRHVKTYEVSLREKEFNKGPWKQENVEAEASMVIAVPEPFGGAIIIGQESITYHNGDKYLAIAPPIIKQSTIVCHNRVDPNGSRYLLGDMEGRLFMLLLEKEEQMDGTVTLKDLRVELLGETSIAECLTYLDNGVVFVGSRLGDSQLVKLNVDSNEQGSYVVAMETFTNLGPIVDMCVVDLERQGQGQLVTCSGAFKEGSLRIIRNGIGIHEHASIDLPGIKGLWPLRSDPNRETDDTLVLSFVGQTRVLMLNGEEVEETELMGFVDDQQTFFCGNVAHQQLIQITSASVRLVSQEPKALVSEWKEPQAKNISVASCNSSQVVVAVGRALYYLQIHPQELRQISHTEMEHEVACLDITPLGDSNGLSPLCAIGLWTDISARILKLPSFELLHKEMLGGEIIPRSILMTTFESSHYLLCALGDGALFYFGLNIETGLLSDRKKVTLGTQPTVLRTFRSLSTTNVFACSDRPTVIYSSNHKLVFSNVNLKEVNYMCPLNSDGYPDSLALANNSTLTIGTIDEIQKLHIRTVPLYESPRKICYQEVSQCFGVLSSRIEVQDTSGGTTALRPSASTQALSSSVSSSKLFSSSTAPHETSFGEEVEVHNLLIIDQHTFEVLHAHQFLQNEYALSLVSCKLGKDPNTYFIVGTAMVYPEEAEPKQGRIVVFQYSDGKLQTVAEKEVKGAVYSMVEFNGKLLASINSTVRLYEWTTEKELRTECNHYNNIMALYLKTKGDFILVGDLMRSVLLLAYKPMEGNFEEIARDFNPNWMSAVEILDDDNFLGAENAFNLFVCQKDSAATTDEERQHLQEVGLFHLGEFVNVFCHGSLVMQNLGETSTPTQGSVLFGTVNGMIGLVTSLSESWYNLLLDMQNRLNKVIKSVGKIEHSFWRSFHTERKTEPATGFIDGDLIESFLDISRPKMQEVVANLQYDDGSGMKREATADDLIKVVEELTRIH
T1 sequence (Q9H2S9 whole entry): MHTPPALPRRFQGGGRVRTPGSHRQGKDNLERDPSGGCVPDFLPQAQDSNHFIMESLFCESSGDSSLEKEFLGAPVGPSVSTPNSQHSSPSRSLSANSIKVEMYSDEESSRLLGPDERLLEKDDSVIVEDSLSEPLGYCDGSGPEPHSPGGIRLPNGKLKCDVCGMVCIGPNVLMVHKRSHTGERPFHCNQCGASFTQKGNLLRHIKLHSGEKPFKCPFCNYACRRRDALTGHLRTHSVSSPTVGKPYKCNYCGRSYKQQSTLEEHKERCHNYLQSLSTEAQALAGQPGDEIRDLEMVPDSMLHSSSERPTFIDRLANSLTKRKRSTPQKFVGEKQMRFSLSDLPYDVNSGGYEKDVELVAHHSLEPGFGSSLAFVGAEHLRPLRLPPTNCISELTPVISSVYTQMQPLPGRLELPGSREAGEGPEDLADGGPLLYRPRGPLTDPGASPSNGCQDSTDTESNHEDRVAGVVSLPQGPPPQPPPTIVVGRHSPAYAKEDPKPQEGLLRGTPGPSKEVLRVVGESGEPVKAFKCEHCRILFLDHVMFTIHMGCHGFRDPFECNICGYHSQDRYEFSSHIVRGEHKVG
T1 sequence (Q96SW2 whole entry): as the sequence (Q96SW2 whole entry) above
T1 sequence (Q16531 whole entry partner): as the sequence (Q16531 whole entry partner) above

Row | Structure (SMILES) | DC50 [1] | Dmax [1] | Dmax [2, 3] | DC50 ([2]; human PBMC, CD8+ T cells, 24 hours, concentration reducing protein level by 50% vs DMSO) | Dmax ([2]; human, 24 h, Table D-1, read-out: decreased the level of IKZF3 (Aiolos)) | Dmax ([2]; human, 24 h, Table E comparison, from Table D-1, read-out: IKZF3 Aiolos max % deg. observed)
1 | O=C1CCC(N2Cc3c(ccc(-c4cc(CN5CC(c6ccccc6)C5)ccn4)c3F)C2=O)C(=O)N1 (stereo not drawn) [Comparative Compound A, 3-(4-fluoro-1-oxo-5-(4-((3-phenylazetidin-1-yl)methyl)pyridin-2-yl)isoindolin-2-yl) piperidine-2,6-dione] | 0.1 nM | 92% | 39% | – | – | –
2 | Nc1nc(-c2ccc3c(c2)CN(C2CCC(=O)NC2=O)C3=O)ccc1CN1CC2(CCC2)C1 (stereo not drawn) [Comparative Compound B, 3-(5-(5-((2-azaspiro[3.3]heptan-2-yl)methyl)-6-aminopyridin-2-yl)-1-oxoisoindolin-2-yl) piperidine-2,6-dione] | 1 nM | 95% | 2% | – | – | –
3 | Nc1nc(-c2ccc3c(c2F)CN(C2CCC(=O)NC2=O)C3=O)ccc1CN1CC2(CCCOC2)C1 (stereo not drawn) [Example 1, 3-(5-(5-((6-oxa-2-azaspiro[3.5]nonan-2-yl)methyl)-6-aminopyridin-2-yl)-4-fluoro-1-oxoisoindolin-2-yl) piperidine-2,6-dione] | 3.4 nM | 65% | 62 to 66% | 23 to 35 nM | 62 to 66% | 62 to 66%
